Measurements reported in ChEMBL document CHEMBL1201862, “PubChem BioAssay data set” (2004).
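Tested at 5 concentrations; 48 h exposure; 96-well plates; endpoints linearly interpolated, else capped at highest concentration. GI50 marks 50% less growth.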 Activity calls are given as the source filed them. Rule as the data show it: active = GI50 up to about 1.1 µM and inactive = higher.

Experiments:
Experiment in all cases: NCI anticancer screen, dose series, 48 h
SN12C = test system: SN12C
HT-29 = test system: HT-29
DU-145 = test system: DU-145
MOLT-4 = test system: MOLT-4
NCI-H460 = test system: NCI-H460
SF-268 = test system: SF-268
RPMI-8226 = test system: RPMI-8226
UACC-257 = test system: UACC-257
OVCAR-5 = test system: OVCAR-5
MDA-N = test system: MDA-N
SK-MEL-28 = test system: SK-MEL-28
HOP-92 = test system: HOP-92
SK-MEL-2 = test system: SK-MEL-2
MDA-MB-231 = test system: MDA-MB-231
K562 = test system: K562
SW-620 = test system: SW-620
HCT-116 = test system: HCT-116
T47D = test system: T47D
M14 = test system: M14
SK-OV-3 = test system: SK-OV-3

| SMILES | GI50 (SN12C) | GI50 (HT-29) | GI50 (DU-145) | GI50 (MOLT-4) | GI50 (NCI-H460) | GI50 (SF-268) | GI50 (RPMI-8226) | GI50 (UACC-257) | GI50 (OVCAR-5) | GI50 (MDA-N) | GI50 (SK-MEL-28) | GI50 (HOP-92) | GI50 (SK-MEL-2) | GI50 (MDA-MB-231) | GI50 (K562) | GI50 (SW-620) | GI50 (HCT-116) | GI50 (T47D) | GI50 (M14) | GI50 (SK-OV-3) |
| --- | --- | --- | --- | --- | --- | --- | --- | --- | --- | --- | --- | --- | --- | --- | --- | --- | --- | --- | --- | --- |
| Nc1nc(-c2ccccc2)nc2oc(-c3cccs3)nc12 | > 100 µM (inactive) | > 100 µM (inactive) | > 100 µM (inactive) | > 100 µM (inactive) | > 100 µM (inactive) | > 100 µM (inactive) | > 100 µM (inactive) | > 100 µM (inactive) | > 100 µM (inactive) | > 10 µM (inactive) | > 100 µM (inactive) | > 100 µM (inactive) | > 100 µM (inactive) | > 100 µM (inactive) | > 100 µM (inactive) | > 100 µM (inactive) | > 100 µM (inactive) | > 100 µM (inactive) | > 100 µM (inactive) | – |
| Cc1ccsc1/C=N/NC1=NCCN1 | > 100 µM (inactive) | > 100 µM (inactive) | > 100 µM (inactive) | > 100 µM (inactive) | – | > 100 µM (inactive) | > 100 µM (inactive) | > 100 µM (inactive) | > 100 µM (inactive) | > 100 µM (inactive) | > 100 µM (inactive) | > 100 µM (inactive) | > 100 µM (inactive) | > 100 µM (inactive) | > 100 µM (inactive) | > 100 µM (inactive) | > 100 µM (inactive) | > 100 µM (inactive) | > 100 µM (inactive) | > 100 µM (inactive) |
| CC12CC(OC(=O)[C@]1(C)O)[C@@H]([C@]1(O)CC[C@H]3[C@@H]4C[C@H]5O[C@]56[C@@H](O)C=CC(=O)[C@]6(C)[C@H]4CC[C@@]31C)C2 (some centres not stated) | 6.19 µM (inactive) | 4.03 µM (inactive) | 22.2 µM (inactive) | 2.54 µM (inactive) | 12.3 µM (inactive) | 5.41 µM (inactive) | – | 7 µM (inactive) | 11 µM (inactive) | 7.21 µM (inactive) | 11.7 µM (inactive) | 2.92 µM (inactive) | 6.08 µM (inactive) | 5.2 µM (inactive) | 3.17 µM (inactive) | 3.18 µM (inactive) | 3.63 µM (inactive) | 8.02 µM (inactive) | 9.02 µM (inactive) | 34.1 µM (inactive) |
| CNNC1=NS(=O)(=O)c2cc(C(=O)OC)c(Cl)cc2S1 | > 10 µM (inactive) | > 10 µM (inactive) | > 10 µM (inactive) | > 10 µM (inactive) | > 10 µM (inactive) | > 10 µM (inactive) | > 10 µM (inactive) | > 10 µM (inactive) | > 10 µM (inactive) | > 10 µM (inactive) | > 10 µM (inactive) | – | > 10 µM (inactive) | > 10 µM (inactive) | > 10 µM (inactive) | > 10 µM (inactive) | > 10 µM (inactive) | > 10 µM (inactive) | > 10 µM (inactive) | > 10 µM (inactive) |
| Cc1cc(-n2nnc(C(=O)O)c2-c2ccccc2)c2ccc(Cl)cc2n1 | > 100 µM (inactive) | > 100 µM (inactive) | > 100 µM (inactive) | 17.5 µM (inactive) | > 100 µM (inactive) | > 100 µM (inactive) | – | > 100 µM (inactive) | > 100 µM (inactive) | > 100 µM (inactive) | > 100 µM (inactive) | > 100 µM (inactive) | > 100 µM (inactive) | > 100 µM (inactive) | 58.1 µM (inactive) | > 100 µM (inactive) | > 100 µM (inactive) | > 100 µM (inactive) | > 100 µM (inactive) | > 100 µM (inactive) |
| CCCCNC(=O)Cn1c2ccc(Br)cc2c2nc3ccccc3nc21 | 84.3 µM (inactive) | > 100 µM (inactive) | > 100 µM (inactive) | > 100 µM (inactive) | – | 97.1 µM (inactive) | > 100 µM (inactive) | > 100 µM (inactive) | > 100 µM (inactive) | > 100 µM (inactive) | > 100 µM (inactive) | > 100 µM (inactive) | > 100 µM (inactive) | > 100 µM (inactive) | > 100 µM (inactive) | > 100 µM (inactive) | 64.3 µM (inactive) | 93.8 µM (inactive) | > 100 µM (inactive) | – |
| O=P(Oc1ccc(Cl)cc1)(Oc1ccc(Cl)cc1)N1CC1 | > 10 µM (inactive) | > 10 µM (inactive) | > 10 µM (inactive) | > 10 µM (inactive) | > 10 µM (inactive) | > 10 µM (inactive) | > 10 µM (inactive) | 4.38 µM (inactive) | > 10 µM (inactive) | > 10 µM (inactive) | > 10 µM (inactive) | – | > 10 µM (inactive) | > 10 µM (inactive) | > 10 µM (inactive) | > 10 µM (inactive) | – | > 10 µM (inactive) | > 10 µM (inactive) | > 10 µM (inactive) |
| CC(=O)c1ccc2c3c1[C@@H]1O[C@@H]1c1cccc(c1-3)[C@@H]1O[C@H]21 | 8.26 µM (inactive) | 5.55 µM (inactive) | 8.39 µM (inactive) | 14.1 µM (inactive) | – | 6.62 µM (inactive) | 5.05 µM (inactive) | 16.9 µM (inactive) | 17.7 µM (inactive) | 13.5 µM (inactive) | 3.5 µM (inactive) | 13.3 µM (inactive) | 14.1 µM (inactive) | 17.7 µM (inactive) | 4.47 µM (inactive) | 2.54 µM (inactive) | 4.54 µM (inactive) | 6.76 µM (inactive) | 6.85 µM (inactive) | 28.6 µM (inactive) |
| C=CCn1c(=O)c(Br)nn(CCOCP(=O)(OCC)OCC)c1=O | > 100 µM (inactive) | – | > 100 µM (inactive) | > 100 µM (inactive) | > 100 µM (inactive) | > 100 µM (inactive) | > 100 µM (inactive) | > 100 µM (inactive) | > 100 µM (inactive) | > 100 µM (inactive) | > 100 µM (inactive) | > 100 µM (inactive) | > 100 µM (inactive) | > 100 µM (inactive) | > 100 µM (inactive) | > 100 µM (inactive) | – | > 100 µM (inactive) | > 100 µM (inactive) | – |
| CC1CN=C(N(Cc2ccc(F)cc2)C(=O)Nc2ccc(Cl)cc2)S1 (configuration not stated) | 28.2 µM (inactive) | 17.8 µM (inactive) | 61.9 µM (inactive) | 27.7 µM (inactive) | 18.7 µM (inactive) | 21.4 µM (inactive) | 43.4 µM (inactive) | 45.9 µM (inactive) | > 100 µM (inactive) | 11.7 µM (inactive) | 16.3 µM (inactive) | – | 15.1 µM (inactive) | 32.3 µM (inactive) | 9.23 µM (inactive) | 22.5 µM (inactive) | 22.3 µM (inactive) | 13.3 µM (inactive) | 0.51 µM (active) | > 100 µM (inactive) |
| COc1ccc(Cc2nc3cc([N+](=O)[O-])ccc3n2C[C@@H]2CCCN3CCCCC23)cc1 (some centres not stated) | – | 17 µM (inactive) | 37.9 µM (inactive) | 18.6 µM (inactive) | 28.2 µM (inactive) | – | – | 15.8 µM (inactive) | 29.3 µM (inactive) | 17.7 µM (inactive) | 17.7 µM (inactive) | 12.8 µM (inactive) | 17.7 µM (inactive) | 19.3 µM (inactive) | 19.8 µM (inactive) | 26 µM (inactive) | 14.7 µM (inactive) | 33.1 µM (inactive) | 14.2 µM (inactive) | 20.2 µM (inactive) |
| CC(C)CC1C(=O)OC(C)(C)OC1=O | > 100 µM (inactive) | > 100 µM (inactive) | > 100 µM (inactive) | > 100 µM (inactive) | > 100 µM (inactive) | > 100 µM (inactive) | > 100 µM (inactive) | > 100 µM (inactive) | > 100 µM (inactive) | > 100 µM (inactive) | > 100 µM (inactive) | – | > 100 µM (inactive) | > 100 µM (inactive) | > 100 µM (inactive) | > 100 µM (inactive) | > 100 µM (inactive) | > 100 µM (inactive) | > 100 µM (inactive) | > 100 µM (inactive) |
| O=c1[nH]c(=O)n(C2OC(CO)C(O)C2O)cc1OCCCc1ccccc1 (configuration not stated) | > 100 µM (inactive) | > 100 µM (inactive) | > 100 µM (inactive) | > 100 µM (inactive) | > 100 µM (inactive) | > 100 µM (inactive) | – | > 100 µM (inactive) | > 100 µM (inactive) | > 100 µM (inactive) | > 100 µM (inactive) | – | > 100 µM (inactive) | > 100 µM (inactive) | – | > 100 µM (inactive) | > 100 µM (inactive) | > 100 µM (inactive) | > 100 µM (inactive) | > 100 µM (inactive) |
| CC1(C)CCCC(C)(C2CCC3(C)C2C(O)CC2C4(C)CCC(O)C(C)(C)C4CCC23C)O1 (configuration not stated) | > 100 µM (inactive) | 78.9 µM (inactive) | > 100 µM (inactive) | 93.1 µM (inactive) | 56.6 µM (inactive) | 51.1 µM (inactive) | – | > 100 µM (inactive) | > 100 µM (inactive) | > 100 µM (inactive) | > 100 µM (inactive) | 76.6 µM (inactive) | > 100 µM (inactive) | 34.5 µM (inactive) | 91.8 µM (inactive) | > 100 µM (inactive) | > 100 µM (inactive) | > 100 µM (inactive) | > 100 µM (inactive) | 46.2 µM (inactive) |
| COC(=O)C(/C(=N\O)C(=O)Nc1cccc(Cl)c1C)c1cnc2ccccc2n1 (configuration not stated) | > 100 µM (inactive) | > 100 µM (inactive) | > 100 µM (inactive) | > 100 µM (inactive) | > 100 µM (inactive) | > 100 µM (inactive) | – | > 100 µM (inactive) | > 100 µM (inactive) | > 100 µM (inactive) | > 100 µM (inactive) | > 100 µM (inactive) | > 100 µM (inactive) | > 100 µM (inactive) | > 100 µM (inactive) | > 100 µM (inactive) | > 100 µM (inactive) | > 100 µM (inactive) | > 100 µM (inactive) | > 100 µM (inactive) |
